5 molecules from BindingDB's records for doi:10.1124/mol.64.4.865 (The Danish University of Pharmaceutical Sciences, 2003) can be followed below.

In test [1] the target is Neuronal acetylcholine receptor subunit alpha-7 (Rattus norvegicus, UniProt Q05941).
The target of test [2] is Neuronal acetylcholine receptor subunit alpha-3 (Rattus norvegicus, UniProt P04757).
Test [3] addresses Neuronal acetylcholine receptor subunit alpha-4 (Rattus norvegicus, UniProt P09483).
Test [4] addresses T1, Muscarinic acetylcholine receptor M2 (Rattus norvegicus, UniProt P10980).
T1 sequence (P10980 whole entry): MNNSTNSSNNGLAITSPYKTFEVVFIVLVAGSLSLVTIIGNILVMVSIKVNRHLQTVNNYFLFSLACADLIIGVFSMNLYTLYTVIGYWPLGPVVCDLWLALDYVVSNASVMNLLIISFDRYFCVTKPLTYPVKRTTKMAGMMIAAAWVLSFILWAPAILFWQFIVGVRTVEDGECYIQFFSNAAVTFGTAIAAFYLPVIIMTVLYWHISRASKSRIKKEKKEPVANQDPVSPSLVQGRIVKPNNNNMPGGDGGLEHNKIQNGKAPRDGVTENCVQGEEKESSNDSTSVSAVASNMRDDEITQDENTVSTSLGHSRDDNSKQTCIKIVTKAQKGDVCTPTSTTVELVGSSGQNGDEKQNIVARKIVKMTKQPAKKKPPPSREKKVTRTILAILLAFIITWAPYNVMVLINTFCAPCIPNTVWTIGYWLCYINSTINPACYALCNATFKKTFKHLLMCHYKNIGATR

For test [5], the target named is Nicotinic acetylcholine receptor (Rattus leucopus, UniProt Q62594).

Each structure is given as a SMILES string. Values joined by “and” are separate entries in the source; they are usually repeats but may differ in a detail not shown here. Equal values may be shown once. A value given as a limit tells only on which side of the number the result lay.

Sequence of Neuronal acetylcholine receptor subunit alpha-7 (Q05941 whole entry): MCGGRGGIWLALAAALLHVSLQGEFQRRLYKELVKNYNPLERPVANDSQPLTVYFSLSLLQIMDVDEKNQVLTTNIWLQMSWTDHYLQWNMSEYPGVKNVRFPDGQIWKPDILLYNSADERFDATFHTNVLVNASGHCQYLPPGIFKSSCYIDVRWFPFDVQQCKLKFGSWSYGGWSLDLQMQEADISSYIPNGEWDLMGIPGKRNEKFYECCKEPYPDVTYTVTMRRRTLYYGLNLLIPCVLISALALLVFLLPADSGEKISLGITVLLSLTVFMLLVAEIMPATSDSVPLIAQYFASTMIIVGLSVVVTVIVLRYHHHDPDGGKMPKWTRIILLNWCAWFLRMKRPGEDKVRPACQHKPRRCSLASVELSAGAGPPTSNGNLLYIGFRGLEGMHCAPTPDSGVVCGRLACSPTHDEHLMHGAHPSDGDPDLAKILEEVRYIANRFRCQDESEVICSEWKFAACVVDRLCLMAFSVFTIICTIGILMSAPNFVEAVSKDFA
Sequence of Nicotinic acetylcholine receptor (Q62594 whole entry): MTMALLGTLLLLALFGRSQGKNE
Sequence of Neuronal acetylcholine receptor subunit alpha-4 (P09483 whole entry): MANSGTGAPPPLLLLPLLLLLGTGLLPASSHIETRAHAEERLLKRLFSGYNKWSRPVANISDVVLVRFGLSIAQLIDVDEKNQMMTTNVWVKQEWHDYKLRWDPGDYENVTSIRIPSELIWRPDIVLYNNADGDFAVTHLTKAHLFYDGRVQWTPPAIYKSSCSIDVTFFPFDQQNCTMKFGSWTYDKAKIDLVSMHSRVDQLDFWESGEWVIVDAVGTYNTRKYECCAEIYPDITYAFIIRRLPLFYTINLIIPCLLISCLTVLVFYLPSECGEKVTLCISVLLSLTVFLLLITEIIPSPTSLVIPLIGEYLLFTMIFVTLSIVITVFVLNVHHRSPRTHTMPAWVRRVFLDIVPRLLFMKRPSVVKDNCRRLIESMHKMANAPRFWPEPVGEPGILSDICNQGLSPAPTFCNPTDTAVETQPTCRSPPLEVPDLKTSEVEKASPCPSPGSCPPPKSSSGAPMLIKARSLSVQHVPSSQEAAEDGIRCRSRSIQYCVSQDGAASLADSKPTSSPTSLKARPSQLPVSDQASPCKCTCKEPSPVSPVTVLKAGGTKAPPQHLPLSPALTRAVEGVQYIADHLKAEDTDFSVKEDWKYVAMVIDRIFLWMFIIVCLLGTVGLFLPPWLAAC
Sequence of Neuronal acetylcholine receptor subunit alpha-3 (P04757 whole entry): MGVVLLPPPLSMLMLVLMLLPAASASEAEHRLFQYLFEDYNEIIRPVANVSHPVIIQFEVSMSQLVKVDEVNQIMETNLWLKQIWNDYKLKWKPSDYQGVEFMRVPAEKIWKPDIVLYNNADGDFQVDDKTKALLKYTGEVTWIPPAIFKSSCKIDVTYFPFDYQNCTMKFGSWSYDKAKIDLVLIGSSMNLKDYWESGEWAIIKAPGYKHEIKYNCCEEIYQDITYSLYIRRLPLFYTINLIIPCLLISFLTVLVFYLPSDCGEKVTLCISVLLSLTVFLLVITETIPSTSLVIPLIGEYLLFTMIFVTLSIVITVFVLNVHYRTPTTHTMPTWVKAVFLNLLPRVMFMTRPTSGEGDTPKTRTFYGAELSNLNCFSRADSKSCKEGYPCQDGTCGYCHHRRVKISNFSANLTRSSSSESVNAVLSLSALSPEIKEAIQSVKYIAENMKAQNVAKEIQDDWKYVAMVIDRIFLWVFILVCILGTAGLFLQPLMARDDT

As to `C[C@H](CCOC(=O)N(C)C)N(C)C` [3-N,N-dimethylaminobutyl-N,N-dimethylcarbamate], the Ki in test [1] is above 10000 nM; in test [2], 370 nM; in test [3], 17 nM and 66 nM; in test [4] it was 3600 nM; in test [5] it was 9 nM.
As for `O=c1cccc2n1CC1CNCC2C1` (stereo unspecified) [CAS_485-35-8], the Ki was above 10000 nM in test [1]; 130 nM in test [2]; 1.3 nM and 6.8 nM in test [3].
For the molecule `CN(C)C(=O)OCC[N+](C)(C)C` [CAS_84607], the results for the inhibition constant Ki in test [4] and in test [5] were 1200 nM and 20 nM, respectively.
For `CN(C)CCOC(=O)N(C)C` [DMCAE] the same measures were above 10000 nM and 5700 nM.
As for `COC(=O)Nc1ccc(Cl)c(Cl)c1` [SWEP], the inhibitory constant (Ki) in test [1] is above 10000 nM; in test [2] it was 2700 nM; in test [4], 150 nM; in test [5] it was 23 nM.
